Laboratory results reported in US8119683B2, “Aryl substituted sulfonamide compounds and their use as anticancer agents” (Taipei Medical University, priority 2009, dated 2012).
Where two headings read alike, the source gives them in different places.

What was measured:
[1] = test system: stomach carcinoma MKN45 cells; test: Cell growth inhibition assay (methylene blue dye), MKN45 cells; assay type: cell-based; conditions: Homo sapiens, MKN-45, 72 h, read-out: Cell type (IC50 ± SD, nM) MKN45 (stomach)
Experimental: (§1) Anticancer activities of the aryl substituted sulfonamide compounds synthesized in the above examples were evaluated by testing their inhibitory effects on mammalian cancer cell growth.
(§2) Human oral epidermoid carcinoma KB cells, non small cell lung carcinoma H460 cells, colorectal carcinoma HT29 cells, and stomach carcinoma MKN45 cells were maintained in RPMI-1640 medium supplied with 5% fetal bovine serum. The cells were treated with the test compound at various concentrations for 72 h.

[2] = test system: Human oral epidermoid carcinoma KB cells; test: Cell growth inhibition assay (methylene blue dye), KB cells; assay type: cell-based
Experimental: as §1, §2

[3] = test system: non small cell lung carcinoma H460 cells; test: Cell growth inhibition assay (methylene blue dye), H460 cells; assay type: cell-based; conditions: Homo sapiens, NCI-H460, 72 h, read-out: Cell type (IC50 ± SD, nM) H460 (lung)
Experimental: as §1, §2

KB-VIN10 cells = test: Cell growth inhibition assay on multidrug resistant KB-VIN10 cells; assay type: cell-based; conditions: Homo sapiens
Experimental: (§3) Cell in logarithmic phase were cultured at a density of 5000 cells/mL/well in a 24-well plate. KB-VIN10 cells were cultured in a medium free of test compound for 3 days prior to use. The cells were treated with the test compound at various concentrations for 72 h. The effect of the test compound on cell growth was evaluated using the methylene blue dye assay. […] KB-CPT100 and KB-CPT300 cells were generated by camptothecin-driven selection. […] (See Liou, J. P. et al J. Med. Chem. 2004, 47, 4247-4257 and Kuo, C. C. et al. Cancer Res. 2004, 64, 4621-4628.) Anticancer activities of the aryl substituted sulfonamide compounds synthesized in the above examples were evaluated by testing their inhibitory effects on these drug-resistant cell lines. Compound 24 was tested in this assay.

KB-TAX50 cells = test: Cell growth inhibition assay on drug-resistant KB-TAX50 cells; assay type: cell-based; conditions: Homo sapiens; KB-TAX50, Paclitaxel resistance
Experimental: as §3, with “dye assay. […] Compounds 16 and 24 were tested in this” for “dye”

[4] = test system: Human umbilical vein endothelial cells (HUVECs); test: Cellular network (tube) formation inhibition assay; assay type: cell-based
Experimental: (i) Cellular Network Formation Inhibition Assay
Each well of a 96-well plate was coated with an extracellular matrix containing collagen for 1 hr to allow the gel to solidify. Human umbilical vein endothelial cells (HUVECs) suspension was prepared at a concentration of 1×10^5 cells/mL in M199 medium supplemented with endothelial cell growth supplements with 20% FBS. Then, 100 μl of the cell suspension was added to each gel-coated well of the plate. Cells were incubated with or without a test compound for 18 hrs at 37° C. Without the test compound, a cellular network structure was fully developed after 12-18 hrs of incubation. The number of tubes formed was counted using light microscopy at 200× magnification.

[5] = test system: drug-resistant cell lines (KB-VIN10, KB-TAX50, KB-7D, KB-CPT100, KB-CPT300, KB-L30); test: Growth inhibition on the drug-resistant KB cell lines (summary over the lines); assay type: cell-based; conditions: Homo sapiens, summary of Table 3, read-out: IC50 values on the drug-resistant cell lines (range over lines)
Experimental: as §3, with “dye assay. […] Compounds 16 and 24 were tested in this” for “dye”

[6] = test system: colorectal carcinoma HT29 cells; test: Cell growth inhibition assay, HT29 cells; assay type: cell-based; conditions: Homo sapiens, HT-29
Experimental: (§4) Human oral epidermoid carcinoma KB cells, non small cell lung carcinoma H460 cells, colorectal carcinoma HT29 cells, and stomach carcinoma MKN45 cells were maintained in RPMI-1640 medium supplied with 5% fetal bovine serum. The cells were treated with the test compound at various concentrations for 72 h. The effect of the test compound on cell growth was evaluated using a methylene blue dye assay similar to that described in Baguley et al., Anal Biochem, 1984, 139: 272-277. […] Compounds 16, 17, and 24 were tested on these three cell lines using methylene blue dye assay. ABT-751 was used as positive control (which was synthesized with the method described in Yoshino et al., J. Med. Chem. 1992, 35, 2496-2497; descriptions of ABT-751 can also be found in Koyanagi et al., Cancer Res. 1994, 54, 1702-1706; Yee et al., Cancer Res. 2005, 11, 6615-6624; and Mauer, et al., J. Thorac. Oncol. 2008, 3, 613-636).
(§5) Further, Compound 24 was tested on non-small-cell lung cancer A549 and H1299 cells, colorectal carcinoma HT29, and normal human umbilical vein endothelial cells (HUVECs).

KB-L30 cells = test: Cell growth inhibition assay on drug-resistant KB-L30 cells; assay type: cell-based; conditions: Homo sapiens; KB-L30, BPR0L075 resistance
Experimental: as §3, with “dye assay. […] Compounds 16 and 24 were tested in this” for “dye”

[7] = test system: non-small-cell lung cancer H1299 cells; test: Cell growth inhibition assay, H1299 cells; assay type: cell-based; conditions: Homo sapiens, NCI-H1299
Experimental: as §4, §5

KB-CPT300 cells = test: Cell growth inhibition assay on drug-resistant KB-CPT300 cells; assay type: cell-based; conditions: Homo sapiens; KB-CPT300, Camptothecin resistance
Experimental: as §3, with “dye assay. […] Compounds 16 and 24 were tested in this” for “dye”

[8] = test system: normal human umbilical vein endothelial cells (HUVECs); test: Cell growth inhibition assay, normal HUVECs; assay type: cell-based; conditions: HUVEC
Experimental: as §4, §5

KB-CPT100 cells = test: Cell growth inhibition assay on drug-resistant KB-CPT100 cells; assay type: cell-based; conditions: Homo sapiens, KBCPT100; KB-CPT100, Camptothecin resistance
Experimental: as §3, with “dye assay. […] Compounds 16 and 24 were tested in this” for “dye”

KB-7D cells = test: Cell growth inhibition assay on drug-resistant KB-7D cells; assay type: cell-based; conditions: Homo sapiens, KB7D, Etoposide resistance
Experimental: as §3, with “dye assay. […] Compounds 16 and 24 were tested in this” for “dye”

[9] = test system: non-small-cell lung cancer A549 cells; test: Cell growth inhibition assay, A549 cells; assay type: cell-based; conditions: Homo sapiens
Experimental: as §4, §5

VEGF165 = test: VEGF production inhibition assay (ELISA); assay type: cell-based; conditions: Homo sapiens, medium of the HUVEC network assay
Experimental: (ii) VEGF Production Inhibition Assay
The medium of assay (i) above was collected. VEGF165 levels were measure by ELISA. In brief, a monoclonal antibody specific for VEGF was pre-coated onto a microplate. A control cell culture medium and the medium of assay (i) were added into the wells and any VEGF present was bound to the wells by the immobilized antibody. After washing away any unbound substances, an enzyme-linked polyclonal antibody specific for VEGF was added to the wells. Following a wash to remove any unbound antibody-enzyme reagent, a substrate solution was added to the wells and color developed in proportion to the amount of VEGF bound in the initial step. The color development was stopped and the intensity of the color was measured.

[10] = test system: CD31-positive cells in tumor tissue (microvessel density); test: Anti-vascular activity, CD31 immunofluorescence staining in tumor tissues; assay type: in vivo; parameters: dose or concentration left out as unconfirmed; conditions: tumor tissue from mice
Experimental: Anti-vascular activities of the aryl substituted sulfonamide compounds were evaluated by immunofluorescence staining in tumor tissues.
Rat anti-mouse CD31 antibodies were purchased from BD Biosciences. Tumor tissue samples were harvested from mice in both the control and test compound-treated groups. Frozen sections were fixed with acetone and chloroform. To block nonspecific proteins, each sample was incubated in 4.5% fish gelatin (BB International Co.) for 20 min. Expression of CD31 was detected in blood vessels using rat anti-mouse CD31 as the primary antibody and TexasRed (Jackson) labeled-goat anti-rat IgG antibody as the secondary antibody. The mean microvessel density (MVD) was determined by first counting and then averaging the number of CD31-positive cells in five random high power microscopic fields from different tumor samples.

[11] = KB cells, 72 h, methylene blue dye assay, read-out: Cell type (IC50 ± SD, nM) KB (oral)
[12] = KB-VIN10 (P-gp170/MDR overexpression), 72 h, methylene blue, read-out: IC50, growth inhibition of KB-VIN10 cells
[13] = KB cells, bands, read-out: IC50, inhibiting proliferation of KB cells (band)

SMILES	IC50 [1]	IC50 [2, 11]	IC50 [3]	IC50 (KB-VIN10 cells; [12])	melting point	IC50 [2, 13]	further results
COc1ccc(S(=O)(=O)Nc2cccnc2Nc2ccc(O)cc2)cc1 [ABT-751, reference compound]	166 ± 8 nM	251 ± 65 nM	218 ± 4 nM	385 nM	–	–	–
COc1ccc(S(=O)(=O)N2CCc3cccc(-c4ccc(C#N)cc4)c32)cc1 [Compound 17, 4-[1-(4-methoxy-benzenesulfonyl)-2,3-dihydro-1H-indol-7-yl]-benzonitrile]	17.2 ± 8.6 nM	31.1 ± 5.4 nM	29.5 ± 14.8 nM	–	157.2 to 158.9 °C	1 to 99 nM	–
COc1ccc(S(=O)(=O)N2CCc3cccc(-c4ccncc4)c32)cc1 [Compound 24, 1-(4-methoxy-benzenesulfonyl)-7-pyridin-4-yl-2,3-dihydro-1H-indole]	69.5 ± 7.6 nM	96 ± 14.1 nM	101 ± 8 nM	106 nM	195.9 to 196.8 °C	1 to 99 nM	IC50 (KB-TAX50 cells): 188 ± 25.3 nM; IC50 ([4]; Homo sapiens, HUVEC, 18 hrs, unit inferred): 500 nM; tube formation inhibition ([4]; at 1.5 (unit not given)): completely inhibited tube formation; IC50 [5]: 90 to 250 nM; IC50 [6]: 201 ± 13.9 nM; IC50 (KB-L30 cells): 237 ± 26.6 nM; IC50 [7]: 132 ± 13.7 nM; IC50 ([2]; KB (Parental), Table 3, read-out: Growth Inhibition (IC50)): 96 ± 14.1 nM; IC50 (KB-CPT300 cells): 93 ± 15.7 nM; IC50 (KB-VIN10 cells; KB-VIN10, Vincristine resistance, read-out: Growth Inhibition (IC50)): 106 ± 18 nM; IC50 [8]: 510 ± 22.2 nM; IC50 (KB-CPT100 cells): 95 ± 12.1 nM; IC50 (KB-7D cells): 257 ± 26.6 nM; IC50 [9]: 150 ± 8.5 nM; inhibition at 0.5 µM (VEGF165): > 50%; decrease of vascular area compared to the blank control [10]: five-fold
COc1ccc(S(=O)(=O)N2CCc3cccc(-c4ccc(CN(C)C)cc4)c32)cc1 [Compound 39, {4-[1-(4-methoxy-benzenesulfonyl)-2,3-dihydro-1H-indol-7-yl]-benzyl}-dimethyl-amine]	–	–	–	–	165 to 166 °C	–	IC50 ([2]; KB cells, bound stated, read-out: IC50, inhibiting proliferation of KB cells (bound)): ≥ 4000 nM
COc1ccc(S(=O)(=O)N2CCc3cccc(-c4ccc(C(=O)O)cc4)c32)cc1 [Compound 40, 4-[1-(4-methoxy-benzenesulfonyl)-2,3-dihydro-1H-indol-7-yl]-benzoic acid]	–	–	–	–	130.3 to 132.1 °C	100 to 700 nM	–
